In BigSolDB 2.1:

O=C(O)c1ccc(C(=O)O)cc1
solubility (mole fraction)
Settings | 303.2 K | 313.2 K | 323.2 K | 333.2 K | 343.2 K | 353.2 K | 363.2 K
in DMAc | 0.016 | 0.0211 | 0.0269 | 0.0331 | 0.0385 | 0.0452 | 0.0524
in NMP | 0.0133 | 0.0155 | 0.0188 | 0.0216 | 0.0256 | 0.0287 | 0.0328
